Among the data in patent publication US20160259918A1, “Computational Approach for Identifying a Combination of Two Drugs” (ALACRIS THERANOSTICS GMBH, priority 2013, published 2016) are IC50 values, retold here.

Like-named read-outs stand apart in the source and are kept apart here. A value given as a limit tells only on which side of the number the result lay.

This experiment deals with cell line HS695T. Put plainly: Cell viability via Trypan blue staining in cell culture experiments. Type of experiment: cell-based. The note with it: Homo sapiens, Hs 695T. The protocol:
Cell lines and pharmacological characterization. Cell line HS695T (CLS) was cultured in DMEM (4 mM L-glutamine, 4.5 g/l glucose, Invitrogen) with 10% fetal bovine serum (Biochrom) and maintained at 37° C. under 5% CO2 atmosphere. The cells were dispensed as triplicates into a 6-well-plate-formate with a concentration of 5×10^5 per well 24 hours prior to drug treatment. Afterwards medium was replaced with a final drug concentration range of 2.5 nM to 8 μM by 3.16-fold dilutions (eight-dose response) of Sunitinib and PI103 as single treatment HS695T for 72 and 96 hours. […] Compounds (Selleckchem) were diluted in DMSO. The final DMSO concentration for the experiments was under 0.4%. Cell viability was determined via Trypan blue staining in duplicates for each well. 100 μl of cells were incubated with an equal volume of 0.5% Trypan blue for 2-5 minutes (in 0.9% sodium chloride) and counted using a Neubauer haemocytometer chamber and a light microscope. The means of independent cell counts were taken for analysis.
Predicted growth inhibition curves were compared to measured growth inhibition curves as previously described.

One may read the IC50 as the midpoint of a concentration-inhibition curve. With `Oc1cccc(-c2nc(N3CCOCC3)c3oc4ncccc4c3n2)c1` [PI103], the IC50 was 830 nM (read-out: IC50 values determined by cell culture experiments) and under 2000 nM (read-out: sensitivity classification according to IC50 determined by cell culture experiments).

Take `CCN(CC)CCNC(=O)c1c(C)[nH]c(/C=C2\C(=O)Nc3ccc(F)cc32)c1C` [Sunitinib]: the 50% inhibitory concentration (IC50) is, setting by setting: (HS695T, read-out: sensitivity classification according to IC50 determined by cell culture experiments) over 2000 nM; (HS695T, single treatment, 2.5 nM to 8 μM, 72 and 96 hours, Trypan blue cell counts, read-out: IC50 values determined by cell culture experiments) 4700 nM.
